Source: EPA's ToxValDB 9.5 (doi:10.2903/j.efsa.2008.146r)

Columns and labels:
Daphnia magna = conditions: chronic/long-term; duration: 21 days; reproduction
Coturnix japonica = conditions: reproduction developmental
Apis mellifera = conditions: acute, mortality
Tagia sp. = conditions: acute; duration: 14 days; mortality
Colinus virginianus = conditions: acute, oral, mortality
Canidae = conditions: oral, Dog Other, clinical signs
Typhlodromus pyri = assay: LR50; higher = less toxic; conditions: acute; duration: 14 days; mortality
Aphidius rhopalosiphi = assay: LR50; higher = less toxic; conditions: acute; duration: 48 hours; mortality

## C[N+]1(C)CCCCC1.[Cl-] [1,1-Dimethylpiperidinium chloride]
Daphnia magna
  NOEC: 12.5 mg/L
Coturnix japonica
  NOEC: 933 mg/kg-day
Apis mellifera; dermal
  LD50: > 100 µg/piece
Apis mellifera; oral, unspecified
  LD50: > 107 µg/piece
Tagia sp.
  LC50: 320 mg/kg
Colinus virginianus; diet
  LD50: > 1330 mg/kg-day
Colinus virginianus
  LD50: > 2000 mg/kg-day
Canidae; chronic, duration: 12 months
  NOAEL: 19.9 mg/kg-day
Canidae; subchronic, duration: 3 months
  NOAEL: 30.5 mg/kg-day
Oncorhynchus mykiss; acute, duration: 96 hours, mortality
  LC50: > 100 µg/mL
Oncorhynchus mykiss; chronic/long-term, duration: 28 days, growth
  NOEC: 100 mg/L
Rattus norvegicus; acute, oral, mortality
  LD50: 200 mg/kg-day
Rattus norvegicus; reproduction developmental
  NOAEC: 155 mg/kg-day
Rattus norvegicus; reproduction developmental, mortality
  NOAEL: 30 mg/kg-day
Typhlodromus pyri
  LR50: 1530 g/ha
Aphidius rhopalosiphi
  LR50: 1370 g/ha
